In patent US12655116B2, “Substituted isophthalic acid diamides” (Bayer Aktiengesellschaft, priority 2020, dated 2026):

Legend:
ABUTH [1] = assay: Pre-emergence herbicidal action against ABUTH; assay type: in vivo, Abutilon theophrasti
Method in brief: (§1)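 Seeds sown in sandy loam, soil-covered; compound sprayed on soil surface pre-emergence. Application: WP/EC, 600–800 l/ha, 0.2% wetting agent. Readout: visual % damage at 3 weeks.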

ALOMY [2] = assay: Pre-emergence herbicidal action against ALOMY; assay type: in vivo, Alopecurus myosuroides; details: pre-emergence
Method in brief: as §1

AMARE [3] = assay: Pre-emergence herbicidal action against AMARE; assay type: in vivo, Amaranthus retroflexus
Method in brief: as §1

AVEFA = assay: Pre-emergence herbicidal action against AVEFA; assay type: in vivo, Avena fatua; details: 80 g/ha, pre-emergence
Method in brief: as §1

ECHCG [4] = assay: Pre-emergence herbicidal action against ECHCG; assay type: in vivo, Echinochloa crus-galli; details: 80 g/ha
Method in brief: as §1

LOLRI = assay: Pre-emergence herbicidal action against LOLRI; assay type: in vivo, Lolium rigidum; details: 80 g/ha
Method in brief: as §1

MATIN [5] = assay: Pre-emergence herbicidal action against MATIN; assay type: in vivo, Matricaria inodora
Method in brief: as §1

PHBPU [6] = assay: Pre-emergence herbicidal action against PHBPU; assay type: in vivo, Pharbitis purpurea; details: dosage 80 g/ha
Method in brief: as §1

SETVI [7] = assay: Pre-emergence herbicidal action against SETVI; assay type: in vivo, Setaria viridis
Method in brief: as §1

VIOTR [8] = assay: Pre-emergence herbicidal action against VIOTR; assay type: in vivo, Viola tricolor
Method in brief: as §1

ABUTH [9] = assay: Post-emergence herbicidal action against ABUTH; assay type: in vivo, Abutilon theophrasti; details: Abutilon theophrasti, 504 h, visual assessment about 3 weeks after treatment vs untreated controls
Method in brief: (§2)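 Sandy loam, greenhouse; treatment 2–3 weeks after sowing, one-leaf stage. Aqueous suspension or emulsion from WP/EC sprayed on foliage (600–800 l/ha, 0.2% wetting agent). Readout: visual % action, ~3 weeks.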

ALOMY [10] = assay: Post-emergence herbicidal action against ALOMY; assay type: in vivo, Alopecurus myosuroides; details: dosage 20 g/ha, visual assessment about 3 weeks after treatment vs untreated controls
Method in brief: as §2

AMARE [11] = assay: Post-emergence herbicidal action against AMARE; assay type: in vivo, Amaranthus retroflexus; details: 20 g/ha, visual assessment about 3 weeks after treatment, 100% = plants have died, 0% = like control plants
Method in brief: as §2

ECHCG [12] = assay: Post-emergence herbicidal action against ECHCG; assay type: in vivo, Echinochloa crus-galli
Method in brief: as §2

SETVI [13] = assay: Post-emergence herbicidal action against SETVI; assay type: in vivo, Setaria viridis
Method in brief: as §2

VERPE = assay: Post-emergence herbicidal action against VERPE; assay type: in vivo, Veronica persica
Method in brief: as §2

VIOTR [14] = assay: Post-emergence herbicidal action against VIOTR; assay type: in vivo, Viola tricolor; details: 20 g/ha
Method in brief: as §2

DIGSA = assay: Pre-emergence herbicidal action against DIGSA; assay type: in vivo, Digitaria sanguinalis; details: dosage 80 g/ha
Method in brief: as §1

MATIN [15] = assay: Post-emergence herbicidal action against MATIN; assay type: in vivo, Matricaria inodora; details: dosage 20 g/ha
Method in brief: as §2

PHBPU [16] = assay: Post-emergence herbicidal action against PHBPU; assay type: in vivo, Pharbitis purpurea; details: dosage 20 g/ha
Method in brief: as §2

[17] = 80 g/ha, scored visually after 3 weeks vs untreated controls (100% = plants have died, 0% = like control plants)

For CC(C)NC(=O)c1c(Br)ccc(C(=O)Nc2nnnn2C)c1Cl [Example 1-185], the pest or weed control at 80 g/ha (ABUTH [1]; Abutilon theophrasti, 504 h, 80 g/ha, scored visually after 3 weeks vs untreated controls (100% = plants have died, 0% = like control plants)) was 100%, the pest or weed control at 20 g/ha (ABUTH [1]; Abutilon theophrasti, 504 h, dosage 20 g/ha, scored visually after 3 weeks vs untreated controls, 100% = plants have died, 0% = like control plants, read-out: Pre-emergence action against ABUTH (herbicidal activity in percent)) was 100% and the pest or weed control at 80 g/ha (ALOMY [2]; Alopecurus myosuroides, 504 h, 80 g/ha, scored visually after 3 weeks vs untreated controls (100% = plants have died, 0% = like control plants)) was 100%. It also gave a pest or weed control at 20 g/ha (ALOMY [2]; Alopecurus myosuroides, 504 h, 20 g/ha, scored visually after 3 weeks, 100% = plants have died, 0% = like control plants) of 90%, a pest or weed control at 20 g/ha (AMARE [3]; Amaranthus retroflexus, 504 h, 20 g/ha, scored visually after 3 weeks vs untreated controls, 100% = plants have died, 0% = like control plants) of 100% and a pest or weed control at 80 g/ha (AMARE [3]; Amaranthus retroflexus, 504 h, 80 g/ha, scored visually after 3 weeks vs untreated controls, 100% = plants have died, 0% = like control plants) of 100%. It also gave a pest or weed control at 80 g/ha (AVEFA; Avena fatua, 504 h) of 100%, a pest or weed control at 80 g/ha (ECHCG [4]; Echinochloa crus-galli, 504 h) of 100% and a pest or weed control at 80 g/ha (LOLRI; Lolium rigidum, 504 h) of 90%. It also gave a pest or weed control at 20 g/ha (MATIN [5]; Tripleurospermum inodorum, 504 h, dosage 20 g/ha) of 100%, a pest or weed control at 80 g/ha (MATIN [5]; Tripleurospermum inodorum, 504 h, dosage 80 g/ha) of 100% and a pest or weed control at 80 g/ha (PHBPU [6]; Ipomoea purpurea, 504 h) of 80%. It also gave a pest or weed control at 80 g/ha (SETVI [7]; Setaria viridis, 504 h, dosage 80 g/ha) of 100%, a pest or weed control at 20 g/ha (VIOTR [8]; Viola tricolor, 504 h, dosage 20 g/ha) of 80% and a pest or weed control at 80 g/ha (VIOTR [8]; Viola tricolor, 504 h, dosage 80 g/ha) of 100%. For the same molecule, the pest or weed control at 5 g/ha (ABUTH [9]; dosage 5 g/ha) was 80%, the pest or weed control at 20 g/ha (ABUTH [9]; dosage 20 g/ha) was 90% and the pest or weed control at 20 g/ha (ALOMY [10]; Alopecurus myosuroides, 504 h) was 90%. For the same molecule, the pest or weed control at 20 g/ha (AMARE [11]; Amaranthus retroflexus, 504 h) was 100%, the pest or weed control at 5 g/ha (ECHCG [12]; Echinochloa crus-galli, 504 h, dosage 5 g/ha) was 90% and the pest or weed control at 20 g/ha (ECHCG [12]; Echinochloa crus-galli, 504 h, dosage 20 g/ha) was 100%. The pest or weed control at 5 g/ha (SETVI [13]; Setaria viridis, 504 h, dosage 5 g/ha) was 80%, the pest or weed control at 20 g/ha (SETVI [13]; Setaria viridis, 504 h, dosage 20 g/ha) was 100% and the pest or weed control at 20 g/ha (VERPE; Veronica persica, 504 h, 20 g/ha) was 80%. The pest or weed control at 20 g/ha (VIOTR [14]; Viola tricolor, 504 h) was 80%.

For CCn1nnnc1NC(=O)c1ccc(C(F)(F)F)c(C(=O)NCC(F)(F)F)c1Cl [Example 2-133], the “Pre-emergence action against ABUTH (herbicidal activity)” value (ABUTH [1]; [17]) was 100%, the “Pre-emergence action against ALOMY (herbicidal activity)” value (ALOMY [2]; [17]) was 90% and the “Pre-emergence action against AMARE in %” value (AMARE [3]; 20 g/ha, scored visually after 3 weeks vs untreated controls, 100% = plants have died, 0% = like control plants) was 90%. The “Pre-emergence action against AMARE in %” value (AMARE [3]; [17]) was 100%, the “Pre-emergence action against AVEFA in %” value (AVEFA) was 90% and the “Pre-emergence action against ECHCG in %” value (ECHCG [4]) was 100%. The “Pre-emergence action against LOLRI in %” value (LOLRI) was 80%, the “Pre-emergence action against MATIN in %” value (MATIN [5]; dosage 20 g/ha) was 90% and the “Pre-emergence action against MATIN in %” value (MATIN [5]; dosage 80 g/ha) was 100%. The “Pre-emergence action against PHBPU in %” value (PHBPU [6]) was 80%, the “Pre-emergence action against SETVI in %” value (SETVI [7]; dosage 20 g/ha) was 100% and the “Pre-emergence action against SETVI in %” value (SETVI [7]; dosage 80 g/ha) was 100%. For the same molecule, the “Pre-emergence action against VIOTR in %” value (VIOTR [8]; dosage 80 g/ha) was 90%, the “Pre-emergence action against DIGSA in %” value (DIGSA) was 90% and the “Post-emergence action against ALOMY in %” value (ALOMY [10]) was 80%. The “Post-emergence action at 20 g/ha against AMARE in %” value (AMARE [11]) was 90%, the “Post-emergence action against ECHCG in %” value (ECHCG [12]; dosage 20 g/ha) was 80% and the “Post-emergence action against MATIN in %” value (MATIN [15]) was 90%. For the same molecule, the “Post-emergence action against PHBPU in %” value (PHBPU [16]) was 80%, the “Post-emergence action against SETVI in %” value (SETVI [13]; dosage 5 g/ha) was 80% and the “Post-emergence action against SETVI in %” value (SETVI [13]; dosage 20 g/ha) was 90%. The “Post-emergence action against VERPE in %” value (VERPE; 5 g/ha) was 80%, the “Post-emergence action against VERPE in %” value (VERPE; 20 g/ha) was 80% and the “Post-emergence action against VIOTR in %” value (VIOTR [14]) was 80%.
